From patent US7541446B2, “Tet repressor-based transcriptional regulatory proteins” (Tet Systems Holding GmbH & Co. KG, priority 1999, dated 2009)

Experiments:
Type in all cases: cell-based
[1] = system: luciferase reporter construct pUHC13-3; assay: Doxycycline-dependent regulation of luciferase in HeLa cell lines stably producing the transactivator, reporter pUHC13-3 transiently transfected
From the text: In order to generate cell lines that maintain the plasmid episomally and thus produce the transactivator over extended periods of time, the transcription unit containing the rtTA-34R coding sequence controlled by the hCMV promoter was inserted into […] (Invitrogen, Carlsbad, USA) from which the RSV promoter had been excised. […] HeLa cells were transfected with the plasmid pCEP4-rtTA-34R, and clones isolated via G418 selection. Clones stably producing the transactivator were selected and tested for their ability to activate transcription from the transiently transfected luciferase reporter construct pUHC13-3 in the presence and absence of Dox.
Upon addition of 5 μg/ml of Dox, luciferase activity is induced up to 600 fold. In comparison to the HeLa cell line HR5 harboring chromosomal copies of the rtTA gene (Gossen et al., 1995), the background level is reduced. […] This leads to a several hundred fold induction of gene expression in the case of the rtTA-34R clones whereas in HR5 cells rtTA achieves only a 20 to 30 fold induction under these conditions.

[2] = system: luciferase gene controlled by Ptet; assay: rtTA-dependent luciferase expression in transiently cotransfected HeLa cells (pUHC13-3); settings: for induction of luciferase activity compared to rtTA: 5 μg/ml Tc or Dox; for reverse phenotype: transient expression, luciferase
Protocol: rtTA-34R and rtTA-44R were then recloned into pUHD15-1 (Gossen & Bujard, 1992), replacing the respective portions of tTA. HeLa cells were transiently cotransfected with plasmids pUHC13-3, encoding the luciferase gene controlled by Ptet (Gossen & Bujard, 1992), and the pUHD15-1 plasmids containing the genes of the respective transactivators. Luciferase activities were measured in absence (light column) and presence of 5 μg/ml of the effectors tetracycline (Tc, light grey) or doxycycline (Dox, dark grey). On the X axis, (−) corresponds to control HeLa cells into which no DNA was transferred. […] The increased regulation factor observed results from both a lower basal and a higher induced activity.
To obtain additional information about the role of the mutated residues, we separated the mutations at positions 19 and 56 from those at 139, 148 and 179. The resulting proteins are called rtTA-1956R and rtTA-148179R. The activation potential of rtTA-1956R and rtTA-148179R was assessed in transient expression experiments. Plasmids encoding the respective rtTA variants were cotransfected with the pUHC13-3 luciferase indicator plasmid into HeLa cells and the luciferase activity was determined.

[3] = system: GFP controlled by a tTA/rtTA responsive promoter; assay: rtTA dependent GFP fluorescence in S. cerevisiae; settings: for basal activity (GFP fluorescence in the absence of inducer): excitation 490 nm, emission 512 nm
From the text: Thus, a plasmid, designated pCM190GFP+, was constructed which contains the following elements: • the coding sequence for GFP controlled by a tTA/rtTA responsive promoter; • a tTA/rtTA encoding sequence that is constitutively expressed; • the URA3 marker that allows selection in appropriate yeast strains; • the replication function of the 2μ episome of S. cerevisiae. Unique endonuclease cleavage sites allow for the removal of the TetR, the activation domain, or the entire tTA encoding sequences, typically replaced by pools of mutagenized alleles obtained as described previously (Leung et al., 1989).
The gene encoding GFP was cloned into the multiple cloning site of pCM190 (Gari et al., 1997) to serve as an indicator of rtTA activity, yielding plasmid pCM190GFP+. The TetR portion of tTA was amplified for mutagenesis with two oligonucleotide primers, 5′-[…] (SEQ ID NO:46), and 5′-[…] (SEQ ID NO:47), from the vector pCM190 as described (Leung et al., 1989). The PCR-fragments and pCM190-GFP+ were restricted with XbalI and BsiWI and purified. The PCR-fragments and the vector were then ligated and transformed into E. coli DH5α. Several thousand E. coli clones were co-cultured, and their plasmid pools were prepared and transformed into S. cerevisiae using the LiAc-method (Ito et al., 1983). […]
Accordingly, the resulting uracil-prototroph yeast clones were replica plated on minimal medium without uracil containing either Tc and/or Dox and scored after growth for two to three days at 30° C. using long wavelength UV-light to excite GFP fluorescence. […] The GFP fluorescence is shown on a logarithmic scale on the left axis. Fluorescence intensities are shown for each transactivator in the absence of inducer, in the presence of 10 μg/ml of Tc, and/or in the presence of 10 μg/ml of Dox. […]
S. cerevisiae strains containing rtTA-34R, rtTA-44R and a GFP^31 strain, as well as strains containing the original tTA and rtTA were grown overnight in minimal medium. […] The light emission of these cells was scored in a fluorimeter using an excitation wavelength of 490 nm and recording emission at 512 nm. […]

[4] = system: Ptet-luciferase expression unit; assay: Dox dependent luciferase activity in stably transfected HeLa cells (X1/6-34R-FFFF, HR5-CL11); settings: X1/6-34R-FFFF or HR5-CL11
From the text: The coding sequence of rTetR-34R was fused with a DNA encoding four minimal activation domains (FFFF)(Baron et al., 1997) by insertion into a proper pUHD vector to generate plasmid […]. HeLa cell line X1/6 was transfected with plasmid pUHrT5 1-1 carrying the rtTA-34R-FFFF gene under the control of PhCMv. The resulting HeLa cell line X1/6-34R-FFFF contains, in addition, the Ptet-luciferase expression unit in a “silent but activatable” locus.
Cell lines derived from various clones that contain pUHrT51-1 stably inserted into the genome where it is constitutively expressed were isolated via hygromycin-B selection and analyzed for Dox dependent luciferase activity. […] This is most likely due to the residual affinity between rtTA and tetO.

[5] = cell line HeLa 0.34R-16, episomal pCEP4-rtTA-34R
[6] = cell line HeLa 0.34R-33, episomal pCEP4-rtTA-34R
[7] = cell line HeLa 0.34R-36, episomal pCEP4-rtTA-34R
[8] = cell line HeLa HR5 (Tet on), chromosomal copies of the rtTA gene

rtTA-34R: rtTA sequence variant E19G, A56P, H139H (silent), D148E, H179R; aa = SEQ ID NO:2
induced level of luciferase in comparison to HR5 ([1]; 5 μg/ml of Dox, rtTA-34R HeLa clones): significantly elevated | induction of luciferase activity ([1]; 5 μg/ml of Dox, rtTA-34R HeLa clones, rtTA in HR5 cells): up to 600 fold | factor of induction ([1]; cell line HeLa 0.34R-16): 600 | Luciferase activity (RLU/μg protein) with Dox [1, 5]: 540 ± 50 RLU/μg protein | Luciferase activity (RLU/μg protein) without Dox [1, 5]: 323600 ± 69470 RLU/μg protein | factor of induction ([1]; cell line HeLa 0.34R-33): 200 | Luciferase activity (RLU/μg protein) with Dox [1, 6]: 360 ± 140 RLU/μg protein | Luciferase activity (RLU/μg protein) without Dox [1, 6]: 74620 ± 3230 RLU/μg protein | factor of induction ([1]; cell line HeLa 0.34R-36): 200 | Luciferase activity (RLU/μg protein) with Dox [1, 7]: 430 ± 50 RLU/μg protein | Luciferase activity (RLU/μg protein) without Dox [1, 7]: 87000 ± 7820 RLU/μg protein | background level of luciferase in comparison to HR5 ([1]; without Dox, rtTA-34R HeLa clones): reduced | induction of luciferase activity compared to rtTA [2]: even higher induction of luciferase activity as compared to rtTA | reverse phenotype [2]: improved reverse phenotype | basal activity (GFP fluorescence in the absence of inducer) [3]: clearly lower as compared to rtTA

rtTA-44R: rtTA sequence variant T26A, D95G; aa = SEQ ID NO:13
induction of luciferase activity compared to rtTA [2]: not improved over rtTA | reverse phenotype [2]: shows a reverse phenotype | basal activity (GFP fluorescence in the absence of inducer) [3]: clearly lower as compared to rtTA

rtTA-1956R: rtTA sequence variant E19G, A56P; aa = SEQ ID NO:7
reverse phenotype [2]: sufficient for the reverse phenotype

rtTA: original reverse tetracycline controlled transactivator (Gossen et al., 1995), parent, SEQ ID NO: 22/23 [reference compound]
factor of induction ([1]; cell line HeLa HR5 (Tet on)): 27 | Luciferase activity (RLU/μg protein) with Dox [1, 8]: 920 ± 170 RLU/μg protein | Luciferase activity (RLU/μg protein) without Dox [1, 8]: 26400 ± 4030 RLU/μg protein | induction factor of expression ([3]; GFP fluorescence, Tc or Dox 10 μg/ml): 40 fold | induction of luciferase activity by Dox [4]: about 700 fold | luciferase activity in the absence of Dox [4]: significant background luciferase activity
